Results: patent US20200129531A1, “USE OF WITHANIA SOMNIFERA EXTRACT TO PROTECT AGAINST AIR POLLUTION RELATED DISEASES” (DSM IP Assets B.V., priority 2017, published 2020)

Key:
MCP-1 = MCP-1 secretion of A549 cells treated with Diesel Particulate Matter; type: cell-based, human; details: for effect on PM-induced MCP-1 secretion (in words): A549; for MCP-1 / MCP-1 % of PM + DMSO: Table 9, A549, 24 h
Source text: The human bronchial epithelial cell line BEAS-2B was from ATCC (American Type Culture Collection, Manassas, Va.) and cultured in Bronchial Epithelial cell Growth Medium (BEGM, Lonza, Wakersville, Md.) in CellBIND® surface plastic flasks (Corning Inc., Corning, N.Y.). The adenocarcinomic human alveolar basal epithelial A549 cell line was obtained from ATCC and cultured in Kaighn's Modification of Ham's F-12 Medium (F-12K medium) (Life Technologies, USA), supplemented with 10% FBS (Sigma, Saint-Louis, Mo.). These cells were cultured at 37° C. in a humidified atmosphere containing 5% CO2. BEAS-2B cells were seeded in 12-well CellBIND® surface culture plates (Corning Inc.) at 3 to 4×10^5 cells per well. A549 cells were seeded in 12-well plates at 2×10^5 cells per well. […] This dilution was twofold further diluted for the assay. After 24 h, cells were treated with the diluted Diesel Particulate Matter at 100 μg/ml and in the presence of different concentrations of Withania somnifera extracts, other plant extracts, fractions and compounds as indicated. The final DSMO concentrations were 0.175%. Untreated cells or cells treated with 0.175% DMSO were used as controls. After 24 h, cell supernatants were collected.

NQO1 = assay: Endogenous Nrf2 activation assay using BEAS-2B cells: NQO1 mRNA expression; type: cell-based, human; details: 0.1% DMSO set to 1
Procedure: (§1) The human bronchial epithelial cell line BEAS-2B was from ATCC (American Type Culture Collection, Manassas, Va.) and cultured in Bronchial Epithelial cell Growth Medium (BEGM, Lonza, Wakersville, Md.) in CellIBIND® surface plastic flasks (Corning Inc., Corning, N.Y.). BEAS-2B cells were seeded in 6-well CellIBIND® surface culture plates (Corning Inc.) at 1×10^6 cells per well and incubated at 37° C. with 5% CO2 for 24 hours.
(§2) A 100 mM R-Sulforaphane stock solution was prepared in DMSO (ABCAM, Cat. No. ab141971, Lot GR303041-2). The R-Sulforaphane stock was diluted in DMSO to obtain the desired final concentrations. Withania somnifera extract (NIG-018911) stock solution was prepared in DMSO.
(§3) After 24 h, cells were treated with different concentrations of Withania somnifera extract (5 μg/ml, 10 μg/ml, 25 μg/ml), R-Sulforaphane (2 μM, 5 μM, 10 μM) or DMSO (0.1%) and incubated at 37° C. with 5% CO2 for 4 hrs or 24 hrs. Each treatment was done in triplicate.
(§4) RNA extraction, cDNA synthesis and TaqMan based real-time PCR: After 4 hrs and 24 hrs cells were harvested in RLT buffer, RNA isolation was done using the RNeasy Mini Kit from Qiagen (Cat. No. 74106). cDNA was prepared with 2500 ng total RNA using SuperScript™ First-Strand Synthesis System for RT-PCR (Invitrogen, Cat. No. 11904-018)
(§5) In a 20 μL PCR reaction, a total input of […] of cDNA was amplified in the ABI 7900 HT real-time PCR System (Applied Biosystems) using the TaqMan® Fast Advanced Master Mix (LifeTechnologies Cat. No. 4444557), 50 nM primers, and 100 nM probe (VIC-TAMRA-labeled) for the 18S rRNA internal control
(§6) and 300 nM primers and 100 nM probe (FAM-TAMRA-labeled) for the gene of interest human
(§7) The thermal cycling profile consisted of 2 min at 50° C. for Uracil-N-glycosylase activation, 95° C. for 20 seconds for polymerase activation followed by 40 cycles 95° C. for 1 second and primer annealing at 60° C. for 20 seconds.
(§8) Relative gene expression was performed by subtracting threshold cycles (CT) for ribosomal RNA from the CT of the targeted gene (ΔCT). Relative mRNA levels were then calculated as 2^−ΔΔCT, where ΔΔCT refers to the ΔCT of […].

IL-6 [1] = assay: IL-6 secretion of A549 cells treated with Diesel Particulate Matter; type: cell-based, human; details: for IL-6 / IL-6 % of PM + DMSO: Table 5, A549, 24 h
Source text: (§9) The human bronchial epithelial cell line BEAS-2B was from ATCC (American Type Culture Collection, Manassas, Va.) and cultured in Bronchial Epithelial cell Growth Medium (BEGM, Lonza, Wakersville, Md.) in CellBIND® surface plastic flasks (Corning Inc., Corning, N.Y.). The adenocarcinomic human alveolar basal epithelial A549 cell line was obtained from ATCC and cultured in Kaighn's Modification of Ham's F-12 Medium (F-12K medium) (Life Technologies, USA), supplemented with 10% FBS (Sigma, Saint-Louis, Mo.). These cells were cultured at 37° C. in a humidified atmosphere containing 5% CO2.
(§10) BEAS-2B cells were seeded in 12-well CellBIND® surface culture plates (Corning Inc.) at 3 to 4×10^5 cells per well. A549 cells were seeded in 12-well plates at 2×10^5 cells per well.
(§11) Diesel Particulate Matter (Standard Reference Material SRM 1650b, National Institute of Standards & Technology, NIST, Gaithersburg, Md.) at 80 mg/ml DMSO (100%) were sonicated for 5 min and thereafter diluted 400 fold in medium. This dilution was twofold further diluted for the assay.
(§12) After 24 h, cells were treated with the diluted Diesel Particulate Matter at 100 μg/ml and in the presence of different concentrations of Withania somnifera extracts, other plant extracts, fractions and compounds as indicated. The final DSMO concentrations were 0.175%.
(§13) Untreated cells or cells treated with 0.175% DMSO were used as controls. After 24 h, cell supernatants were collected.
(§14) The concentrations of IL-6 and IL-8 in the supernatants were determined by Luminex kits (BIO-RAD Laboratories, Hercules, Calif.) and used in the LiquiChip Workstation IS 200 (Qiagen, Hilden, Germany). The data were evaluated with the LiquiChip Analyser software (Qiagen).

Nrf2 = assay: Luciferase reporter assay using H411E-ARE8L cells (Nrf2 activation); details: for Nrf-2 activity, Normalized data: R-sulforaphane set to 1.0, DMSO 0
Procedure: Luciferase Reporter Assay Using H411E-ARE8L Cells:
The medium for H411E-ARE8L cells was Dulbecco's Modified Eagle Medium (DMEM) high glucose containing heat inactivated 10% fetal bovine Serum (FBS). The media was exchanged every two to three-days. The DMEM assay medium used charcoal treated FBS (DMEMct). The transactivation assay was performed in 96 well plates. The plates were seeded with approximately 40′000 cells per well in 100 μl DMEMct and incubated over night at 37° C. Then the test compounds were diluted in DMEDct and given to the cells as described below. The cells were incubated for at least further 16 h at 37° C. and 5% CO2. Cells were equilibrated to room temperature. Lysis of the cells was done by adding 100 μL lysis solution, Steady-Glo© luciferase buffer according to the manufacturer (Promega) containing 0.5 mM DTT per well and incubated for 10 min at room temperature with gentle shaking. The luminescence was measured within 2 hours after incubation on a luminometer (Mithras, Berthold Technologies).
The negative control were cells in 0.5% DMSO.
All extracts, fractions and pure compounds were tested for concentrations that induce toxicity. Non-toxic concentrations were then selected for treating cells as describes in the methods section.

IL-8 = IL-8 secretion of A549 cells treated with Diesel Particulate Matter; type: cell-based, human; details: for effect on IL-8 secretion (in words): A549, PM-induced; for IL-8 / IL-8 % of PM + DMSO: Table 7, A549, 24 h
Source text: as §9, §10, §11, §12, §13, §14

HMOX = assay: Endogenous Nrf2 activation assay using BEAS-2B cells: HMOX mRNA expression; type: cell-based, human; details: 0.1% DMSO set to 1
Procedure: as §1, §2, §3, §4, §5, §6, §7, §8

IL-6 [2] = assay: IL-6 secretion of BEAS-2B cells treated with Diesel Particulate Matter; type: cell-based, human; details: for IL-6 / IL-6 % of PM + DMSO: 24 h
Source text: as §9, §10, §11, §12, §13, §14

PGE2 = PGE2 secretion of BEAS-2B cells treated with Diesel Particulate Matter; type: cell-based, human; details: for PGE2 / PGE2 % of PM + DMSO: Table 10, BEAS-2B, 24 h
Source text: as §9, §10, §11, §12, §13
Secreted PGE2 was determined by Enzyme Immuno Assay (EIA) (Cayman Chemicals, Ann Harbor, […].).

[3] = Table 3, 5 μg/ml + PM 100 μg/ml
[4] = Table 3, 10 μg/ml + PM 100 μg/ml

SMILES: C[S@@+]([O-])CCCCN=C=S [R-Sulforaphane, R-sulforaphane]
- effect on PM-induced MCP-1 secretion (in words) (MCP-1): clear inhibition
- Relative mRNA expression level at 4 h (NQO1) (NQO1; 2 μM): 1.60
- Relative mRNA expression level at 24 h (NQO1) (NQO1; 2 μM): 4.66
- Relative mRNA expression level at 4 h (NQO1) (NQO1; 5 μM): 2.26
- Relative mRNA expression level at 24 h (NQO1) (NQO1; 5 μM): 7.62
- Relative mRNA expression level at 4 h (NQO1) (NQO1; 10 μM): 1.78
- Relative mRNA expression level at 24 h (NQO1) (NQO1; 10 μM): 8.77
- reduction of PM-induced IL-6 secretion (IL-6 [1]; A549, concentration not given): about twofold
- Nrf-2 activity, Average (Nrf2; Conc. final 4.55 μg/ml): 29384 relative units of luciferase fluorescence
- Nrf-2 activity, Normalized data (Nrf2; Conc. final 4.55 μg/ml): 1.0000
- reduction of PM-induced cytokine secretion (IL-8 paragraph) (IL-8; A549, concentration not given): twofold
- Relative mRNA expression level at 4 h (HMOX) (HMOX; 2 μM): 9.48
- Relative mRNA expression level at 24 h (HMOX) (HMOX; 2 μM): 2.63
- Relative mRNA expression level at 4 h (HMOX) (HMOX; 5 μM): 22.44
- Relative mRNA expression level at 24 h (HMOX) (HMOX; 5 μM): 5.23
- Relative mRNA expression level at 4 h (HMOX) (HMOX; 10 μM): 27.43
- Relative mRNA expression level at 24 h (HMOX) (HMOX; 10 μM): 7.12
- effect on PM-induced IL-6 secretion (in words) (IL-6 [2]; concentration not given): significantly reduced

SMILES: CO[C@H]1CC(=O)[C@]2(C)[C@H]3CC[C@]4(C)[C@@H]([C@H](C)[C@H]5CC(C)=C(CO)C(=O)O5)CC[C@H]4[C@@H]3C[C@H]3O[C@]32[C@H]1O [Quresimine A, quresimine A]
- effect on PM-induced MCP-1 secretion (in words) (MCP-1): low, but non-significant decrease
- MCP-1 (MCP-1; 5 μg/ml + PM 100 μg/ml): 796.7 pg/mL
- MCP-1 % of PM + DMSO (MCP-1; 5 μg/ml + PM 100 μg/ml): 92%
- effect on PM-induced IL-6 secretion (in words) (IL-6 [1]; A549): decrease
- IL-6 (IL-6 [1]; 5 μg/ml + PM 100 μg/ml): 9.5 pg/mL
- IL-6 % of PM + DMSO (IL-6 [1]; 5 μg/ml + PM 100 μg/ml): 75%
- effect on IL-8 secretion (in words) (IL-8): significant inhibition
- IL-8 (IL-8; 5 μg/ml + PM 100 μg/ml): 242 pg/mL
- IL-8 % of PM + DMSO (IL-8; 5 μg/ml + PM 100 μg/ml): 80%
- effect on PGE2 secretion compared to PM with DMSO (in words) (PGE2; PM-treated BEAS-2B): borderline
- PGE2 (PGE2; 5 μg/ml + PM 100 μg/ml): 33.2 pg/mL
- PGE2 % of PM + DMSO (PGE2; 5 μg/ml + PM 100 μg/ml): 87%
- IL-6 (IL-6 [2]; [3]): 23.5 pg/mL
- IL-6 % of PM + DMSO (IL-6 [2]; [3]): 94%

SMILES: CC1=C(C)C(=O)O[C@@H]([C@](C)(O)[C@H]2CC[C@H]3[C@@H]4[C@@H]5O[C@@H]5[C@@]5(O)CC=CC(=O)[C@]5(C)[C@H]4CC[C@]23C)C1 [Withanolide A, withanolide A]
- effect on PM-induced MCP-1 secretion (in words) (MCP-1): low, but non-significant decrease
- MCP-1 (MCP-1; 10 μg/ml + PM 100 μg/ml): 790.7 pg/mL
- MCP-1 % of PM + DMSO (MCP-1; 10 μg/ml + PM 100 μg/ml): 91%
- effect on PM-induced IL-6 secretion (in words) (IL-6 [1]; A549): decrease
- IL-6 (IL-6 [1]; 10 μg/ml + PM 100 μg/ml): 15.2 pg/mL
- IL-6 % of PM + DMSO (IL-6 [1]; 10 μg/ml + PM 100 μg/ml): 120%
- Nrf-2 activity, Average (Nrf2; Conc. final 22.73 μg/ml): 4677 relative units of luciferase fluorescence
- Nrf-2 activity, Normalized data (Nrf2; Conc. final 22.73 μg/ml): 0.0629
- effect on IL-8 secretion (in words) (IL-8): no effect
- IL-8 (IL-8; 10 μg/ml + PM 100 μg/ml): 313.7 pg/mL
- IL-8 % of PM + DMSO (IL-8; 10 μg/ml + PM 100 μg/ml): 103%
- PGE2 (PGE2; 10 μg/ml + PM 100 μg/ml): 34.7 pg/mL
- PGE2 % of PM + DMSO (PGE2; 10 μg/ml + PM 100 μg/ml): 91%
- IL-6 (IL-6 [2]; [4]): 32.8 pg/mL
- IL-6 % of PM + DMSO (IL-6 [2]; [4]): 131%
